# Reference: US6919338B2, “Substituted quinazoline derivatives and their use as inhibitors of aurora-2 kinase” (AstraZeneca AB, priority 2000, dated 2005)
# Tests used:
# [1] = tested on: human tumour cell line MCF7; assay: In vitro cell proliferation assay; format: cell-based; settings: MCF7, 72 h, MCF-7 cells, 3 days with compound, CyQUANT, read-out: concentration giving 50% inhibition of cell proliferation
# Source text: (a) In Vitro Cell Proliferation Assay
# This assay determines the ability of a test compound to inhibit the growth of adherent mammalian cell lines, for example the human tumour cell line MCF7. MCF-7 (ATCC HTB-22) or other adherent cells were typically seeded at 1×10^3 cells per well (excluding the peripheral wells) in DMEM (Sigma Aldrich) without phenol red, plus 10% foetal calf serum, 1% L-glutamine and 1% penicillin/streptomycin in 96 well tissue culture treated clear plates (Costar). The following day (day 1), the media was removed from a no treatment control plate and the plate stored at −80° C. The remaining plates were dosed with compound (diluted from 10 mM stock in DMSO using DMEM (without phenol red, 10% FCS, 1% L-glutamine, 1% penicillin/streptomycin). Untreated control wells were included on each plate. After 3 days in the presence/absence of compound (day 4) the media was removed and the plates stored at −80° C. Twenty four hours later the plates were thawed at room temperature and cell density determined using the CyQUANT cell proliferation assay kit (c-7026/c-7027 Molecular Probes Inc.) according to manufacturers directions. Briefly, 200 μl of a cell lysis/dye mixture (10 μl of 20× cell lysis buffer B, 190 μl of sterile water, 0.25 μl of CYQUANT GR dye) was added to each well and the plates incubated at room temperature for 5 minutes in the dark. […]
# [2] = molecular target: T1, aurora2 kinase (Homo sapiens, UniProt O14965); assay: In vitro aurora2 kinase inhibition test; format: biochemical
# T1 construct: made in house; host or cells: Spodoptera frugiperda Sf21 insect cells (baculovirus)
# T1 sequence (O14965 1-403): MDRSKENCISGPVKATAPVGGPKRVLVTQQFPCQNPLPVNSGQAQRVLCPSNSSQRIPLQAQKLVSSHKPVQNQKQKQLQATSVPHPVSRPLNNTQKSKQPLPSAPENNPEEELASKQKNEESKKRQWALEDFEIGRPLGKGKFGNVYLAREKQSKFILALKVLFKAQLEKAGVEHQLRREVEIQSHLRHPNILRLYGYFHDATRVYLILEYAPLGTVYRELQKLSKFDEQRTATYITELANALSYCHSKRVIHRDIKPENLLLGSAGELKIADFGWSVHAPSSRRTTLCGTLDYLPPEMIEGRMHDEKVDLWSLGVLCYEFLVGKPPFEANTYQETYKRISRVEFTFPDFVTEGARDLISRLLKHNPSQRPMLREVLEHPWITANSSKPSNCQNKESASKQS
# [3] = tested on: MCF7 cells; assay: In vitro cell cycle analysis assay; format: cell-based, human; settings: 24 hours, 10 μM Compound 52 (text b2735 says 1 μM)
# Procedure: (a) In Vitro Cell Cycle Analysis Assay
# This assay determines the ability of a test compound to arrest cells in specific phases of the cell cycle. Many different mammalian cell lines could be used in this assay and MCF7 cells are included here as an example. MCF-7 cells were seeded at 3×10^5 cells per T25 flask (Costar) in 5 ml DMEM (no phenol red 10% FCS, 1% L-glutamine 1% penicillin/streptomycin). Flasks were then incubated overnight in a humidified 37° C. incubator with 5% CO2. The following day 1 ml of DMEM (no phenol red 10% FCS, 1% L-glutamine 1% penicillin/streptomycin) carrying the appropriate concentration of test compound solubilised in DMSO was added to the flask. A no compound control treatments was also included (0.5% DMSO). The cells were then incubated for a defined time (usually 24 hours) with compound. […] The samples were then transferred to LPS tubes and DNA content per cell analysed by Fluorescence activated cell sorting (FACS) using a FACScan flow cytometer (Becton Dickinson). Typically 25000 events were counted and recorded using CellQuest v1.1 software (Verity Software). Cell cycle distribution of the population was calculated using Modfit software (Verity Software) and expressed as percentage of cells in G0/G1, S and G2/M phases of the cell cycle. […]
structure (smiles),measurement,setting,value
COc1cc2c(Nc3nc(CC(=O)Nc4ccc(F)cc4)cs3)ncnc2cc1OCCCN1CCOCC1 [Compound 52],IC50,[1],0.616 µM
same,IC50,[2],0.167 µM
same,% Cells in G2/M,[3],>50%
